# Measured values: patent US20230017532A1 (Hoffmann-La Roche Inc., priority 2018, published 2023)
# Where a name gives a salt, the structure may show the parent alone.
# Tested on: Acinetobacter baumannii ATCC17961
# Experiment: Antimicrobial susceptibility testing: 90% growth inhibitory concentration (IC90) determination, Iso-Sensitest broth, OD 600 nm
# Type: cell-based
# Conditions: 90% growth inhibitory concentration, Acinetobacter baumannii ATCC17961, Iso-Sensitest broth, OD 600 nm over 16 h; read-out: ATCC 17961 IC90
# Outline: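 Twofold serial dilutions (e.g. 50–0.097 μM final) incubated with ~5×10^5 CFU/ml in Iso-Sensitest broth at 35±2 °C. OD600 read every 20 min for 16 h; IC90 derived from growth inhibition during logarithmic phase.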
row,SMILES,IC90
1,"CCc1cc(Nc2nccn3c(-c4ccc(OC)c(F)c4F)cnc23)ccc1C(=O)NCCNCC(=O)N1CCN[C@H](CO)C1 [Example 178, 4-[[3-(2,3-difluoro-4-methoxyphenyl)imidazo[1,2-a]pyrazin-8-yl]amino]-2-ethyl-N-[2-[[2-[(3S)-3-(hydroxymethyl)piperazin-1-yl]-2-oxoethyl]amino]ethyl]benzamide]",160 nM
2,"CCc1cc(Nc2nccn3c(-c4cccc(F)c4C(F)(F)F)cnc23)ccc1C(=O)NCCOCCN [Example 179, N-[2-(2-aminoethoxy)ethyl]-2-ethyl-4-[[3-[3-fluoro-2-(trifluoromethyl)phenyl]imidazo [1,2-a]pyrazin-8-yl]amino] benzamide]",300 nM
3,"C=CCNCCCNC(=O)c1ccc(Nc2nccn3c(-c4ccc(OC)c(F)c4F)cnc23)cc1CC [Example 181, 4-[[3-(2,3-difluoro-4-methoxyphenyl)imidazo[1,2-a]pyrazin-8-yl]amino]-2-ethyl-N-[3-(prop-2-enylamino)propyl] benzamide; hydrochloride]",160 nM
4,"CCc1cc(Nc2nccn3c(-c4ccc(O)cc4C(F)(F)F)cnc23)ccc1C(=O)NCCOCCN [Example 182, N-[2-(2-aminoethoxy)ethyl]-2-ethyl-4-[[3-[4-hydroxy-2-(trifluoromethyl)phenyl]imidazo [1,2-a]pyrazin-8-yl]amino] benzamide; hydrochloride]",220 nM
5,"COc1ccc(-c2cnc3c(Nc4cc(C)c(C(=O)NCCOCCN(C)C)c(F)c4)nccn23)c(F)c1F [Example 190, 4-[[3-(2,3-difluoro-4-methoxyphenyl)imidazo[1,2-a]pyrazin-8-yl]amino]-N-[2-[2-(dimethylamino)ethoxy]ethyl]-2-fluoro-6-methylbenzamide]",56 nM
6,"COc1ccc(-c2cnc3c(Nc4cc(C)c(C(=O)NCCOCCN)c(F)c4)nccn23)c(F)c1F [Example 191, N-[2-(2-amino-ethoxy]-4-[[3-(2,3-difluoro-4-methoxyphenyl)imidazo[1,2-a]pyrazin-8-yl]amino]-2-fluoro-6-methyl-benzamide; hydrochloride]",87 nM
7,"COc1ccc(-c2cnc3c(Nc4ccc(C(=O)NCCOCCN)c(F)c4)nccn23)c(F)c1F [Example 199, N-(2-(2-amino-ethoxy)ethyl)-4-((3-(2,3-difluoro-4-methoxyphenyl)imidazo[1,2-a]pyrazin-8-yl)amino)-2-fluorobenzamide]",380 nM
8,C#CCOc1ccc(-c2cnc3c(Nc4ccc(C(=O)N[C@@H](C)CNCCN)c(CC)c4)nccn23)c(F)c1F [Example 200],630 nM
9,"C#CCOc1ccc(-c2cnc3c(Nc4ccc(C(=O)N[C@@H](C)CNCCNC(C)=O)c(CC)c4)nccn23)c(F)c1F [Example 201, N-[(1S)-2-(2-acetamidoethyl-amino)-1-methyl-ethyl]-4-[[3-(2,3-difluoro-4-prop-2-ynoxy-phenyl)imidazo[1,2-a]pyrazin-8-yl]amino]-2-ethyl-benzamide]",360 nM
10,"CCc1cc(Nc2nccn3c(-c4ccc(OC)c(F)c4F)cnc23)cc(F)c1C(=O)NCCOCCN [Example 202, N-(2-(2-amino-ethoxy)ethyl)-4-((3-(2,3-difluoro-4-methoxyphenyl)imidazo[1,2-a]pyrazin-8-yl)amino)-2-ethyl-6-fluorobenzamide dihydrochloride]",200 nM
11,"CCc1cc(Nc2nccn3c(-c4ccc(OC)c(F)c4F)cnc23)ccc1C(=O)NCCOCC(=O)N1CCN[C@H](CO)C1 [Example 203, 4-[[3-(2,3-difluoro-4-methoxy-phenyl)imidazo [1,2-a]pyrazin-8-yl]amino]-2-ethyl-N-[2-[2-[(3S)-3-(hydroxymethyl)piperazin-1-yl]-2-oxo-ethoxy]ethyl]benzamide]",430 nM
12,"CCc1cc(Nc2nccn3c(-c4ccc(Oc5ccccn5)c(F)c4F)cnc23)ccc1C(=O)NCCOCC(=O)N1CCN[C@H](CO)C1 [Example 204, 4-[[3-[2,3-difluoro-4-(2-pyridyloxy)phenyl]imidazo [1,2-a]pyrazin-8-yl]amino]-2-ethyl-N-[2-[2-[(3S)-3-(hydroxymethyl)piperazin-1-yl]-2-oxo-ethoxy]ethyl]benzamide]",530 nM
13,"CCc1cc(Nc2nccn3c(-c4ccc(Oc5ccccn5)c(F)c4F)cnc23)ccc1C(=O)NCCNCC(=O)N1CCN[C@H](CO)C1 [Example 205, 4-[[3-[2,3-difluoro-4-(2-pyridyloxy)phenyl]imidazo [1,2-a]pyrazin-8-yl]amino]-2-ethyl-N-[2-[[2-[(3S)-3-(hydroxymethyl)piperazin-1-yl]-2-oxo-ethyl]amino]ethyl]benzamide]",590 nM
14,"CCc1cc(Nc2nccn3c(-c4ccc(OC)cc4CC)cnc23)ccc1C(=O)NCCOCCN [Example 206, N-(2-(2-amino-ethoxy)ethyl)-2-ethyl-4-((3-(2-ethyl-4-methoxyphenyl)imidazo[1,2-a]pyrazin-8-yl)amino)benzamide hydrochloride]",260 nM
15,"C#CCOc1ccc(-c2cnc3c(Nc4ccc(C(=O)N[C@@H](C)CNCC(N)=O)c(CC)c4)nccn23)c(F)c1F [Example 207, N-[(1S)-2-[(2-amino-2-oxo-ethyl)amino]-1-methyl-ethyl]-4-[[3-(2,3-difluoro-4-prop-2-ynoxy-phenyl)imidazo [1,2-a]pyrazin-8-yl]amino]-2-ethyl-benzamide]",350 nM
16,"COc1ccc(-c2cnc3c(Nc4cc(C)c(C(=O)NCCOCCOCCN)c(F)c4)nccn23)c(F)c1F [Example 208, N-(2-(2-(2-aminoethoxy)ethoxy)ethyl)-4-((3-(2,3-difluoro-4-methoxyphenyl)imidazo[1,2-a]pyrazin-8-yl)amino)-2-fluoro-6-methyl-benzamide dihydrochloride]",230 nM
17,"CCc1cc(Nc2nccn3c(-c4cccc(F)c4F)cnc23)ccc1C(=O)NCCOCCN [Example 209, N-[2-(2-amino-ethoxy)ethyl]-4-[[3-(2,3-difluoro-phenyl)imidazo [1,2-a]pyrazin-8-yl]amino]-2-ethyl-benzamide]",330 nM
18,"CCc1cc(Nc2nccn3c(-c4cc(F)ccc4F)cnc23)ccc1C(=O)NCCOCCN [Example 210, N-[2-(2-amino-ethoxy)ethyl]-4-[[3-(2,5-difluorophenyl)imidazo[1,2-a]pyrazin-8-yl]amino]-2-ethyl-benzamide]",550 nM
19,"CCc1cc(Nc2nccn3c(-c4cc(F)cc(OC)c4)cnc23)ccc1C(=O)NCCOCCN [Example 211, N-[2-(2-amino-ethoxy)ethyl]-2-ethyl-4-[[3-(3-fluoro-5-methoxy-phenyl)imidazo [1,2-a]pyrazin-8-yl]amino] benzamide]",940 nM
20,"COc1ccc(-c2cnc3c(Nc4cc(C)c(C(=O)NCCOCCN=C(N(C)C)N(C)C)c(F)c4)nccn23)c(F)c1F [Example 212, N-(2-(2-((bis(dimethyl-amino)methylene)amino)ethoxy)ethyl)-4-((3-(2,3-difluoro-4-methoxyphenyl)imidazo[1,2-a]pyrazin-8-yl)amino)-2-fluoro-6-methylbenzamide formate]",400 nM
21,"CCc1cc(Nc2nccn3c(-c4cc(C)cc(F)c4)cnc23)ccc1C(=O)NCCOCCN [Example 213, N-[2-(2-amino-ethoxy)ethyl]-2-ethyl-4-[[3-(3-fluoro-5-methyl-phenyl)imidazo [1,2-a]pyrazin-8-yl]amino] benzamide]",810 nM
